# Measurements taken from paper PMC10349806 (Nature Communications, 2023).
# Several values for one entry are separate records, joined by “and”; a condition that tells them apart may be missing. Equal entries are not always repeated.
# Tests used:
# PfCRT variant E207Q = assay: CQ uptake assay, oocytes expressing E207Q; assay type: cell-based, Plasmodium falciparum
# Procedure: (§1) Site-directed mutagenesis of PfCRT^Dd2 was performed as described using the megaprimer method with overlap extension[21],[54]. The primer pairs used are listed in Supplementary Table 6. Please note that a codon-optimized and oocyte-adapted version of PfCRT^Dd2 was used[22] (Supplementary Fig. 16). The resulting DNA fragment was cloned into the SP64T expression vector and verified by sequencing.
# (§2) Oocytes were obtained as described previously. Briefly, adult (>2 years old) female X. laevis frogs (NASCO) were anesthetized in a cooled solution of ethyl 3-amino benzoate methanesulfonate (0.1%, w/v), followed by a surgical removal of parts of the ovary. The ovary lobes were carefully dissected and small pieces of oocytes were incubated in Ca^2+-free ND96 buffer (96 mM NaCl, 2 mM KCl, 1 mM MgCl2 buffered with 5 mM HEPES/NaOH, pH 7.5) supplemented with collagenase D (0.1%, w/v; Roche), BSA (0.5%, w/v), and 9 mm Na2HPO4 at 18 °C for 14-16 h while gentle shaking. After incubation, the oocytes were carefully washed several times with ND96 buffer (96 mM NaCl, 2 mM KCl, 1.8 mM CaCl2, 1 mM MgCl2 buffered with 5 mM HEPES/NaOH, pH 7.5) supplemented with 100 mg l^−1 gentamycin). Defolliculated and healthy-looking stage V-VI oocytes were manually selected for RNA microinjection. The RNA was generated as following: The codon-optimized sequences of PfCRT variants were cloned into the pSP64T expression vector. After vector linearization using the restriction endonucleases BamHI or SalI (New England Biolabs), transcription was performed using the in vitro SP6 mMessage mMachine Kit (Ambion)[34]. The obtained RNA was kept at −80 °C and diluted with nuclease-free water to a concentration of 0.6 μg μl^−1. Precision-bore glass capillary tubes (3.5-inch glass capillaries; Drummond Scientific Co.) were pulled on a vertical puller (P-87 Flaming/Brown micropipette puller, Sutter Instrument Co.), graduated, and placed on a microinjector (Nanoject II Auto-Nanoliter Injector, Drummond Scientific Co.). 50 nl of nuclease-free water alone (control oocytes) or 50 nl of 0.6 μg μl^−1 RNA were injected under stereomicroscopic control. Injected oocytes were incubated for 46–72 h at 18 °C with twice-daily buffer changes before usage in experiments.
# (§3) Drug uptake assays were performed as described previously[21],[22],[24],[34]. […] The direction of radio-labeled drug transport is here from the mostly acidic extracellular solution (pH 4.5 or 6.0, as indicated) into the oocyte cytosol (pH ∼ 7.2), which corresponds to the efflux of drug from the acidic digestive vacuole (pH 5.2) into the parasite cytoplasm (pH 7.2). The topology of PfCRT in the oolemma is such that both the N- and C-terminus face the extracellular milieu[3],[22]. In the parasite, the N- and C-terminus face the lumen of the digestive vacuole. […] For determination of the amount of drug uptake for each oocyte, the reaction medium was removed and the oocytes were washed three times with 2 ml of ice-cold ND96 buffer. Each oocyte was individually transferred to a scintillation vial containing 5% sodium dodecyl sulfate (200 μl) for lysis. […] Oocytes that were injected with water instead of RNA were analyzed in parallel, representing the uptake of a drug by diffusion and/or endogenous permeation pathways. […] The specific PfCRT-mediated uptake was determined by subtracting the corresponding background value measured in water-injected oocytes from that of PfCRT-expressing oocytes. […]
# PfCRT^Dd2 = PfCRT^Dd2 (Plasmodium falciparum, UniProt Q9N623, A220S/I356T/K76T/M74I/N326S/N75E/Q271E/R371I); details: cited from earlier work
# Sequence of PfCRT^Dd2 (Q9N623 whole entry A220S/I356T/K76T/M74I/N326S/N75E/Q271E/R371I): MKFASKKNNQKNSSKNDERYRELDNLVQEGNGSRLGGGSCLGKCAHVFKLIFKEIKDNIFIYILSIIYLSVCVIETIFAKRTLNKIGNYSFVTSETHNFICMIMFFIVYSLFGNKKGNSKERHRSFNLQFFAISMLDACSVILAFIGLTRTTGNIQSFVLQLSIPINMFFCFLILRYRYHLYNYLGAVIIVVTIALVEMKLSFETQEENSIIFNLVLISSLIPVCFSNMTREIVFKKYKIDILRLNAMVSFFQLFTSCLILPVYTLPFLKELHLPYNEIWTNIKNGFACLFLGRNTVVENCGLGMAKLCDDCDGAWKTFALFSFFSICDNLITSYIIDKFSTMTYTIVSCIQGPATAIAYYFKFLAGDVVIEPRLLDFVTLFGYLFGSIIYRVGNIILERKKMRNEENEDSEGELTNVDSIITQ
# PfCRT variant E208A = molecular target: T1, PfCRT variant E208A (Plasmodium falciparum, UniProt Q9N623, A220S/E208A/I356T/K76T/M74I/N326S/N75E/Q271E/R371I); assay: CQ uptake assay, oocytes expressing E208A; assay type: cell-based
# T1 sequence (Q9N623 1-424 M74I/N75E/K76T/E208A/A220S/Q271E/N326S/I356T/R371I): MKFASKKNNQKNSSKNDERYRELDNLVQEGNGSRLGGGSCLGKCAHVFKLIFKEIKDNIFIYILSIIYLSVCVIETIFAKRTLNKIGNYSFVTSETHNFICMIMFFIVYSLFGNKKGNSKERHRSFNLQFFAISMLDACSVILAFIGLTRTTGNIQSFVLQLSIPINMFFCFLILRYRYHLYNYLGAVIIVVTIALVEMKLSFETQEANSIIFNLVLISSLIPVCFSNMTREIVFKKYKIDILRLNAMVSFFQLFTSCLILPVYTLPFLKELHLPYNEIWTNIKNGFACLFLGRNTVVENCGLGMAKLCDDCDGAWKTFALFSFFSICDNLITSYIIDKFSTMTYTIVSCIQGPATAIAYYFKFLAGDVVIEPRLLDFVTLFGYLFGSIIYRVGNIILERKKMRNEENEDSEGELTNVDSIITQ
# Procedure: as §1, §2, §3
# [1] = pKa values of the drugs (literature); assay type: physicochemical; details: between pH 4.5 and 6.0
smiles,measurement,setting,value
"CCN(CC)CCCC(C)Nc1ccnc2cc(Cl)ccc12 (stereo not shown) [CQ, chloroquine]",Activity at pH 4.5,"PfCRT variant E207Q; E207Q, 50 µM CQ, 1 h, mean ± SEM",2.15 ± 0.52 pmol h-1 oocyte-1
same,R-value,"PfCRT variant E207Q; E207Q, CQ transport at pH 4.5 / pH 6.0",0.88 ± 0.01
same,E207Q transport activity pH 4.5,"PfCRT variant E207Q; pH 4.5, individual replicates, Fig 6b",1.41 pmol oocyte-1 h-1 and 3.42 pmol oocyte-1 h-1 and 1.62 pmol oocyte-1 h-1
same,E207Q transport activity pH 6.0,"PfCRT variant E207Q; pH 6.0, individual replicates, Fig 6b",1.59 pmol oocyte-1 h-1 and 3.69 pmol oocyte-1 h-1 and 1.95 pmol oocyte-1 h-1
same,E207Q R-value,PfCRT variant E207Q; ratio of activity pH 4.5 / pH 6.0,0.89 and 0.93 and 0.83
same,share of full transport velocity,PfCRT^Dd2; at the pH of the digestive vacuole of 5.2,60%
same,pH of maximal CQ transport activity,PfCRT^Dd2,~ 6.0 pH
same,Activity at pH 6.0,"PfCRT variant E208A; E208A, 50 µM CQ, 1 h, mean ± SEM",5.43 ± 0.38 pmol h-1 oocyte-1
same,R-value,"PfCRT variant E208A; E208A, CQ transport at pH 4.5 / pH 6.0",0.48 and 0.48 ± 0.05
same,E208A transport activity pH 4.5,"PfCRT variant E208A; pH 4.5, single replicates, Fig 1d left",3.17 pmol oocyte-1 h-1 and 3.09 pmol oocyte-1 h-1 and 1.68 pmol oocyte-1 h-1
same,E208A R-value,"PfCRT variant E208A; pH 4.5 vs pH 6.0, Fig 1d left",0.52 and 0.55 and 0.37
same,E208A transport activity pH 6.0,"PfCRT variant E208A; pH 6.0, single replicates, Fig 1d left",6.15 pmol oocyte-1 h-1 and 5.57 pmol oocyte-1 h-1 and 4.57 pmol oocyte-1 h-1
same,molecules being di-protonated,[1],> 99%
